Columns and labels:
Mino cells = experiment: Antiproliferative effect, MTS cell viability assay, Mino cells; format: cell-based; conditions: Homo sapiens, MINO, Mino mantle cell lymphoma cells; read-out: IC50 (anti-proliferation) Mino cells
Procedure, shortened: (§1)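 MTS read-out, A490 of formazan from metabolically active cells; compound 0–10 μM (0, 0.001, 0.01, 0.1, 1, 10 μM), 72 h exposure.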

JeKo-1 cells = experiment: Antiproliferative effect, MTS cell viability assay, JeKo-1 cells; format: cell-based; conditions: Homo sapiens; JeKo-1 mantle cell lymphoma cells; read-out: IC50 (anti-proliferation) JeKO-1 cells
Procedure, shortened: as §1

BTK = BTK (Homo sapiens, UniProt Q06187); experiment: Degradation of BTK protein in Namalwa cells (Western blot; DC50, Dmax); conditions: for DC50: BTK degradation, cell line not given
Chain of BTK (Q06187 whole entry): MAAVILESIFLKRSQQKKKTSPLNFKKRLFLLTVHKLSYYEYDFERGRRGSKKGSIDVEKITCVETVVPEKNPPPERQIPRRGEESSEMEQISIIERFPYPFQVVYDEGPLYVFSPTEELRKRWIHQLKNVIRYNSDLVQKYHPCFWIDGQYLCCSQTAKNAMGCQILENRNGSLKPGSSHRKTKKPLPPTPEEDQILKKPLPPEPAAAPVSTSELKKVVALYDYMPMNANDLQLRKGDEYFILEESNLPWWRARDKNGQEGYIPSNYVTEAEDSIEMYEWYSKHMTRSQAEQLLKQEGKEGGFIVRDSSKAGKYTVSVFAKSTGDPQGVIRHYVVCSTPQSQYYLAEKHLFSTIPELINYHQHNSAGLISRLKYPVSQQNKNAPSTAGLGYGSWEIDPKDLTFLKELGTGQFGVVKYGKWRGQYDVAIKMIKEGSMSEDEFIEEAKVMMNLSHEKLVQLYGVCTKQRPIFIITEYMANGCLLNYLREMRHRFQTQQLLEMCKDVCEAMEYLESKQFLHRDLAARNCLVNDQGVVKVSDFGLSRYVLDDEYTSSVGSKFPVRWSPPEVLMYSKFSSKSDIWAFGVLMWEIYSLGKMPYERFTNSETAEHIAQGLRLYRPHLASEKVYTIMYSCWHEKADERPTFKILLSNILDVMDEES

Row | SMILES | Dmax (BTK) [%] | DC50 (BTK) [µM] | IC50 (Mino cells) [µM] | IC50 (JeKo-1 cells) [µM]
1 | NC(=O)c1c(-c2ccc(Oc3ccccc3)cc2)nn2c1NCCC2C1CCN(C2CCN(C(=O)N3CCC(CN4CCN(c5ccc6c(c5)C(=O)N(C5CCC(=O)NC5=O)C6=O)CC4)CC3)CC2)CC1 (stereo not drawn) [Compound 349, 7-(1′-(4-((4-(2-(2,6-dioxopiperidin-3-yl)-1,3-dioxoisoindolin-5-yl)piperazin-1-yl)methyl)piperidine-1-carbonyl)-[1,4′-bipiperidin]-4-yl)-2-(4-phenoxyphenyl)-4,5,6,7-tetrahydropyrazolo[1,5-a]pyrimidine-3-carboxamide] | > 90 | 0.01 to 0.05 | 1 to 10 | 1 to 10
2 | NC(=O)c1c(-c2ccc(Oc3ccccc3)cc2)nn2c1NCCC2C1CCN(C2CCN(C(=O)N3CCC(CC4CCN(c5ccc6c(c5)C(=O)N(C5CCC(=O)NC5=O)C6=O)CC4)CC3)CC2)CC1 (stereo not drawn) [Compound 353, 7-(1′-(4-((1-(2-(2,6-dioxopiperidin-3-yl)-1,3-dioxoisoindolin-5-yl)piperidin-4-yl)methyl)piperidine-1-carbonyl)-[1,4′-bipiperidin]-4-yl)-2-(4-phenoxyphenyl)-4,5,6,7-tetrahydropyrazolo[1,5-a]pyrimidine-3-carboxamide] | > 90 | 0.01 to 0.05 | < 1 | 1 to 10
3 | NC(=O)c1c(-c2ccc(Oc3ccccc3)cc2)nn2c1NCCC2C1CCN(C2CCN(C(=O)N3CCC(CN4CCC(c5ccc6c(c5)C(=O)N(C5CCC(=O)NC5=O)C6=O)CC4)CC3)CC2)CC1 (stereo not drawn) [Compound 355, 7-(1′-(4-((4-(2-(2,6-dioxopiperidin-3-yl)-1,3-dioxoisoindolin-5-yl)piperidin-1-yl)methyl)piperidine-1-carbonyl)-[1,4′-bipiperidin]-4-yl)-2-(4-phenoxyphenyl)-4,5,6,7-tetrahydropyrazolo[1,5-a]pyrimidine-3-carboxamide] | > 90 | < 0.01 | 1 to 10 | 1 to 10
4 | NC(=O)c1c(-c2ccc(Oc3ccccc3)cc2)nn2c1NCCC2C1CCN(C2CCN(C(=O)N3CCC(CN4CCC(c5ccc6c(c5)CN(C5CCC(=O)NC5=O)C6=O)CC4)CC3)CC2)CC1 (stereo not drawn) [Compound 356, 7-(1′-(4-((4-(2-(2,6-dioxopiperidin-3-yl)-1-oxoisoindolin-5-yl)piperidin-1-yl)methyl)piperidine-1-carbonyl)-[1,4′-bipiperidin]-4-yl)-2-(4-phenoxyphenyl)-4,5,6,7-tetrahydropyrazolo[1,5-a]pyrimidine-3-carboxamide] | > 90 | < 0.01 | < 1 | 1 to 10
5 | NC(=O)c1c(-c2ccc(Oc3ccccc3)cc2)nn2c1NCCC2C1CCN(CC2CCN(C(=O)N3CCN(c4ccc5c(c4)C(=O)N(C4CCC(=O)NC4=O)C5=O)CC3)CC2)CC1 (stereo not drawn) [Compound 357, 7-(1-((1-(4-(2-(2,6-dioxopiperidin-3-yl)-1,3-dioxoisoindolin-5-yl)piperazine-1-carbonyl)piperidin-4-yl)methyl)piperidin-4-yl)-2-(4-phenoxyphenyl)-4,5,6,7-tetrahydropyrazolo[1,5-a]pyrimidine-3-carboxamide] | > 50 | > 0.05 | > 10 | > 10

The next lines start with results.

Row | Dmax (BTK) [%] | DC50 (BTK) [µM] | SMILES | IC50 (Mino cells) [µM] | IC50 (JeKo-1 cells) [µM]
6 | > 90 | < 0.01 | NC(=O)c1c(-c2ccc(Oc3ccccc3)cc2)nn2c1NCCC2C1CCN(C2CCN(C(=O)N3CCN(C4CCN(c5ccc6c(c5)CN(C5CCC(=O)NC5=O)C6=O)CC4)CC3)CC2)CC1 (stereo not drawn) [Compound 346, 7-(1′-(4-(1-(2-(2,6-dioxopiperidin-3-yl)-1-oxoisoindolin-5-yl)piperidin-4-yl)piperazine-1-carbonyl)-[1,4′-bipiperidin]-4-yl)-2-(4-phenoxyphenyl)-4,5,6,7-tetrahydropyrazolo[1,5-a]pyrimidine-3-carboxamide] | < 1 | 1 to 10
7 | > 90 | < 0.01 | NC(=O)c1c(-c2ccc(Oc3ccccc3)cc2)nn2c1NCCC2C1CCN(C2CCN(C(=O)N3CCC(N4CCC(c5ccc6c(c5)CN(C5CCC(=O)NC5=O)C6=O)CC4)CC3)CC2)CC1 (stereo not drawn) [Compound 348, 7-(1′-(4-(2-(2,6-dioxopiperidin-3-yl)-1-oxoisoindolin-5-yl)-[1,4′-bipiperidine]-1′-carbonyl)-[1,4′-bipiperidin]-4-yl)-2-(4-phenoxyphenyl)-4,5,6,7-tetrahydropyrazolo[1,5-a]pyrimidine-3-carboxamide] | < 1 | < 1
8 | > 90 | < 0.01 | NC(=O)c1c(-c2ccc(Oc3ccccc3)cc2)nn2c1NCCC2C1CCN(C2CCN(C(=O)N3CCC(CN4CCN(c5ccc6c(c5)CN(C5CCC(=O)NC5=O)C6=O)CC4)CC3)CC2)CC1 (stereo not drawn) [Compound 350, 7-(1′-(4-((4-(2-(2,6-dioxopiperidin-3-yl)-1-oxoisoindolin-5-yl)piperazin-1-yl)methyl)piperidine-1-carbonyl)-[1,4′-bipiperidin]-4-yl)-2-(4-phenoxyphenyl)-4,5,6,7-tetrahydropyrazolo[1,5-a]pyrimidine-3-carboxamide] | < 1 | 1 to 10
9 | > 90 | 0.01 to 0.05 | NC(=O)c1c(-c2ccc(Oc3ccccc3)cc2)nn2c1NCCC2C1CCN(C2CCN(C(=O)N3CCN(CC4CCN(c5ccc6c(c5)C(=O)N(C5CCC(=O)NC5=O)C6=O)CC4)CC3)CC2)CC1 (stereo not drawn) [Compound 351, 7-(1′-(4-((1-(2-(2,6-dioxopiperidin-3-yl)-1,3-dioxoisoindolin-5-yl)piperidin-4-yl)methyl)piperazine-1-carbonyl)-[1,4′-bipiperidin]-4-yl)-2-(4-phenoxyphenyl)-4,5,6,7-tetrahydropyrazolo[1,5-a]pyrimidine-3-carboxamide] | < 1 | 1 to 10
10 | > 90 | < 0.01 | NC(=O)c1c(-c2ccc(Oc3ccccc3)cc2)nn2c1NCCC2C1CCN(C2CCN(C(=O)N3CCN(CC4CCN(c5ccc6c(c5)CN(C5CCC(=O)NC5=O)C6=O)CC4)CC3)CC2)CC1 (stereo not drawn) [Compound 352, 7-(1′-(4-((1-(2-(2,6-dioxopiperidin-3-yl)-1-oxoisoindolin-5-yl)piperidin-4-yl)methyl)piperazine-1-carbonyl)-[1,4′-bipiperidin]-4-yl)-2-(4-phenoxyphenyl)-4,5,6,7-tetrahydropyrazolo[1,5-a]pyrimidine-3-carboxamide] | < 1 | 1 to 10
11 | > 90 | 0.01 to 0.05 | NC(=O)c1c(-c2ccc(Oc3ccccc3)cc2)nn2c1NCCC2C1CCN(C2CCN(C(=O)N3CCC(CC4CCN(c5ccc6c(c5)CN(C5CCC(=O)NC5=O)C6=O)CC4)CC3)CC2)CC1 (stereo not drawn) [Compound 354, 7-(1′-(4-((1-(2-(2,6-dioxopiperidin-3-yl)-1-oxoisoindolin-5-yl)piperidin-4-yl)methyl)piperidine-1-carbonyl)-[1,4′-bipiperidin]-4-yl)-2-(4-phenoxyphenyl)-4,5,6,7-tetrahydropyrazolo[1,5-a]pyrimidine-3-carboxamide] | 1 to 10 | 1 to 10
12 | > 50 | > 0.05 | NC(=O)c1c(-c2ccc(Oc3ccccc3)cc2)nn2c1NCCC2C1CCN(CC2CCN(C(=O)N3CCN(c4ccc5c(c4)CN(C4CCC(=O)NC4=O)C5=O)CC3)CC2)CC1 (stereo not drawn) [Compound 358, 7-(1-((1-(4-(2-(2,6-dioxopiperidin-3-yl)-1-oxoisoindolin-5-yl)piperazine-1-carbonyl)piperidin-4-yl)methyl)piperidin-4-yl)-2-(4-phenoxyphenyl)-4,5,6,7-tetrahydropyrazolo[1,5-a]pyrimidine-3-carboxamide] | > 10 | > 10
